The values below come from ChEMBL document CHEMBL1133580, “Successful virtual screening of a chemical database for farnesyltransferase inhibitor leads” (J Med Chem, 2000).

Type in all cases: protein-complex assay
In experiment [1] the target is T1, Protein farnesyltransferase (Rattus norvegicus) (UniProt Q04631+Q02293). Briefly: In vitro inhibition of farnesyl transferase (FT) by using FT [3H]-SPA kit at the dose of 500 uM.
Experiment [2] addresses T1, Protein farnesyltransferase (Rattus norvegicus). Put plainly: In vitro inhibition of farnesyl transferase (FT) by using FT [3H]-SPA kit at the dose of 100 uM.
For experiment [3] the target is unchanged. Briefly: In vitro inhibition of farnesyl transferase (FT) by using FT [3H]-SPA kit; IA is inactive.
Experiment [4] has as its target Protein farnesyltransferase (Rattus norvegicus, UniProt Q02293+Q04631). Put plainly: In vitro inhibition of Farnesyltransferase (FT) by using FT [3H]-SPA kit.

Calls of active or inactive are those of the source. The calls are words filed in the database; no cut-off is given here.

In the case of `CCN(CC#N)c1ccc(/C=N/c2ccc(SC)cc2)cc1`, the inhibition (usually how much of the control response was suppressed) in experiment [1] worked out at 15.8%.
Regarding `CC(=O)c1cc(C(=O)c2ccc(F)cc2)n2cnc3cc(F)ccc3c12`, the inhibition in experiment [2] worked out at 24.5%.
The molecule `CCN(CC)c1cccc(OC(=O)Nc2cccc(C(F)(F)F)c2)c1` gave an inhibition in experiment [1] of 21.2%.
In experiment [2], `O=C(OCC(F)(F)C(F)(F)C(F)(F)C(F)(F)F)c1cc([N+](=O)[O-])cc2c1-c1c(cc([N+](=O)[O-])cc1[N+](=O)[O-])C2=O` came in with an inhibition of 41.1%.
Still for that read-out and setting: the figure for `O=C(Cc1cccc2ccccc12)NC(NC(=S)N1CCOCC1)C(Cl)(Cl)Cl` (stereo not drawn) is 23.8%.
As to `CN(C)c1ccc(C(=O)N/N=C/c2ccccc2[N+](=O)[O-])cc1`, the inhibition in experiment [1] turned out to be 28.3%.
For the molecule `COc1cccc(NS(=O)(=O)c2ccc(-c3ccc(S(=O)(=O)Nc4cccc(OC)c4)s3)s2)c1`, in experiment [3], the inhibition result was “inactive”.
As to `O=C1c2cccc([N+](=O)[O-])c2C(=O)N1c1ccc(S(=O)(=O)c2ccc(N3C(=O)c4cccc([N+](=O)[O-])c4C3=O)cc2)cc1`, the inhibition entry in experiment [3] is “inactive”.
With `COc1ccccc1/N=C(\S)NC1CCCCCCCCCCC1`, the inhibition result in experiment [3] was “inactive”.
As to `CSc1nc(N/C=C(\C#N)S(=O)(=O)c2ccccc2Cl)nc(N(C)C)n1`, the inhibition entry in experiment [3] is “inactive”.
`CC(C)C(NC(=O)OCc1ccccc1)C(=O)NC(C)(C)C` (stereo not drawn): the inhibition result in experiment [3] was “inactive”.
On the same count and under the same terms, then `N=C(NOC(=O)Nc1ccc(Cl)cc1)c1ccc(OCc2ncc(C(F)(F)F)cc2Cl)cc1`, with “inactive”.
With `O=C(Oc1cc(S(=O)(=O)c2ccccc2)ccc1[N+](=O)[O-])c1cccnc1Cl`, in experiment [2], the inhibition was determined as 19.7%.
For the molecule `Cc1c(-c2ccnc(SCc3ccccc3)n2)sc2ccc(Cl)cc12`, the inhibition result in experiment [3] was “inactive”.
In turn, `Cc1ccc(S(=O)(=O)NC2(Nc3cccc(C)c3)C(Cl)=C(Cl)C(=O)C(Cl)(Cl)C2(Cl)Cl)cc1` (stereo not drawn) came in with an inhibition in experiment [1] of 24.9%.
On to `COc1ccc(C=C(C(=O)c2ccccc2)C(=O)c2ccccc2)cc1`, for which, in experiment [2], the inhibition is 30%.
In turn, `O=C(Nc1ccc(F)cc1[N+](=O)[O-])Oc1ccc2cc(Br)ccc2c1` gave an inhibition in experiment [2] of 26.4%.
Molecule `Cc1c(/N=C/N(C(=O)c2ccccc2)c2cccc([N+](=O)[O-])c2C)cccc1[N+](=O)[O-]` returned an inhibition in experiment [1] of 17%.
Still for that read-out and setting: the figure for `NC(=O)c1cc2c(c([N+](=O)[O-])c1)-c1c(cc(C(N)=O)cc1[N+](=O)[O-])C2=O` is 27.3%.
On to `Cc1cc(C)c(S(=O)(=O)Cc2ccccc2)c(OC(C)C)n1`, for which the inhibition entry in experiment [3] is “inactive”.
Consider `Cc1ccc(S(=O)(=O)C(Cl)(Cl)S(=O)(=O)c2ccc(C)cc2)cc1`, for which the inhibition in experiment [2] turned out to be 41.6%.
Regarding `O=C(NC(=O)C(c1ccc(Cl)cc1)c1ncc(C(F)(F)F)cc1Cl)Nc1ccc(Cl)cc1` (stereo not drawn), in experiment [3], the inhibition result was “inactive”.
On to `Cc1cc(-c2nc(-c3ccc(C(F)(F)F)cc3)no2)n(C)n1`, for which the inhibition entry in experiment [3] is “inactive”.
Molecule `O=[N+]([O-])c1cc(C(F)(F)F)cc([N+](=O)[O-])c1Oc1ccc(S(=O)(=O)N2CCOCC2)cc1` yielded an inhibition in experiment [1] of 50.8%.
Regarding `O=[N+]([O-])c1ccc(C2CC(c3cccnc3)=NN2c2ccccc2)cc1` (stereo not drawn), the inhibition in experiment [2] was 43.9%.
Take `COc1ccc(CCN2C(=O)CS/C2=N\c2c(C)cccc2C)cc1OC`: in experiment [3], the inhibition result was “inactive”.
Take `COc1cc(C(c2c(O)oc3ccccc3c2=O)c2c(O)oc3ccccc3c2=O)cc(OC)c1OC`: the inhibition in experiment [2] came to 27.8%.
On to `O=C(N/N=C/c1ccccc1O)N(c1ccccc1)c1ccccc1`, for which the inhibition entry in experiment [3] is “inactive”.
In experiment [2], `CCCCCCn1c(N)c(C#N)c2ccc([N+](=O)[O-])cc2c1=O` had an inhibition of 32.2%.
In the case of `Cc1ccc(S(=O)(=O)N(C)c2ccc(Cl)cc2C2=NCC(C)(C)c3ccccc32)cc1`, the inhibition in experiment [2] was found to be 16.8%.
As to `O=C1c2cc([N+](=O)[O-])cc(C(=O)N3CCCCC3)c2-c2c1cc([N+](=O)[O-])cc2[N+](=O)[O-]`, the half-inhibitory concentration (IC50) – broadly, the concentration at which inhibition is half-maximal – in experiment [4] turned out to be 96 µM.
Turning to `O=C(Cc1c(Cl)cc(Cl)cc1Cl)C(=O)Oc1c(Cl)cc(Cl)cc1Cl`, the inhibition result in experiment [3] was “inactive”.
With `Nc1c(C(=O)Nc2ccccc2)sc2nc3c(c(-c4cccnc4)c12)CCC3`, the inhibition in experiment [1] worked out at 23.9%.
Consider `COc1cccc(C2Nc3ccccc3CN2NS(=O)(=O)c2ccc(C)cc2)c1O` (stereo not drawn), for which the inhibition in experiment [1] is 16.8%.
For `CC(=O)OCC(COC(C)=O)(CN1C(=O)c2ccccc2C1=O)CN1C(=O)c2ccccc2C1=O`, in experiment [1], the inhibition worked out at 60.2%.
For the molecule `O=C1NC(=S)S/C1=C\c1ccccc1I`, the inhibition in experiment [2] is 39.2%.
Turning to `O=[N+]([O-])c1ccc(-c2csc(-c3ccc(Cl)cc3)n2)cc1CS(=O)(=O)c1ccc(Cl)cc1`, in experiment [3], the inhibition result was “inactive”.
As to `Clc1ccc(-c2cc(-c3csc(N/N=C/c4ccccc4)n3)on2)c(Cl)c1`, the inhibition entry in experiment [3] was “inactive”.
